This note sets out measurements from article PMC5674494, “Use of Cyclic Backbone NGR-Based SPECT to Increase Efficacy of Postmyocardial Infarction Angiogenesis Imaging” (Contrast Media & Molecular Imaging, 2017).

The term share remaining denotes the share of the starting amount still present when the sample was taken. High values mean less turnover, low ones more turnover.

In one data set the target is T1, CD13 (Mus musculus, UniProt P97449).
T1 construct: the level of CD13 expression was markedly higher in the infarcted myocardium of MI animals; from tissue; host or cells: heart (myocardium) of living Swiss mice, 7 days after MI
T1 sequence (P97449 1-966): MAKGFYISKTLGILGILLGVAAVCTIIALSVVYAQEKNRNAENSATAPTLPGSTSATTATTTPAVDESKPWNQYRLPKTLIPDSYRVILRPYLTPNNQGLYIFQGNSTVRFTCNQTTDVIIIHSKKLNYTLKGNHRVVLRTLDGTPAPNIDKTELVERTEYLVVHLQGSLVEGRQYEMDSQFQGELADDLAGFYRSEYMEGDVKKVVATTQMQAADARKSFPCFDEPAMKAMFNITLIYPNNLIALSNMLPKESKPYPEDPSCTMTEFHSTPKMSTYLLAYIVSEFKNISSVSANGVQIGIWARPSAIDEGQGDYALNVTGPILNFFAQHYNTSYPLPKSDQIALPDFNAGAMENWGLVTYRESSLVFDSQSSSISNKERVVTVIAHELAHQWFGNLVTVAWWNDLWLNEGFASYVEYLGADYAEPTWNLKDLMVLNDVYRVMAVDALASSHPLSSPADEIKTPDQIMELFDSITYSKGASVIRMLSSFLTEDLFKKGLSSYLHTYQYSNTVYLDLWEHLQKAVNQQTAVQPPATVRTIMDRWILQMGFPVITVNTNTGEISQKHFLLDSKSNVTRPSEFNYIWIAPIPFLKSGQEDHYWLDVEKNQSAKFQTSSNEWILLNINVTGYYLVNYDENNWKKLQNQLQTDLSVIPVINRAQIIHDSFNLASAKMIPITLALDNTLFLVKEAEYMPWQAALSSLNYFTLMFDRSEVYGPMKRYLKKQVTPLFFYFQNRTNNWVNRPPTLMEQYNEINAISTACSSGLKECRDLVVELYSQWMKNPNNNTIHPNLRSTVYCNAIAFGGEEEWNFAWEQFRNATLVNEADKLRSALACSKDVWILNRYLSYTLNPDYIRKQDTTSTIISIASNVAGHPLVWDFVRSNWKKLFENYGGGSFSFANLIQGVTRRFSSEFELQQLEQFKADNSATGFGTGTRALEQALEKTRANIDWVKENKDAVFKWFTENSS
Briefly: Dual-isotope micro-SPECT, SUV of 111In-labeled NGR tracers in heart segments of MI mice. The data set is classed as in vivo, Swiss mice. The settings on record: MI mice 7 days after LAD ligation, mean ± SEM. The procedure: (§1) In 10–12-week-old male Swiss mice, we induced MI by ligation of the left anterior descending coronary artery (LAD) as described before to test coNGR (n = 5) or co(NGR)4 (n = 8). A group of sham-operated Swiss mice (n = 5) was used as control. SPECT imaging was performed 7 days after MI or sham surgery. All animals were held under the guidelines of the animal care facility (Maastricht University). All animal experiments were approved by the Committee for Animal Welfare of Maastricht University.
Mice were anesthetized with isoflurane (induction 2.5%; maintenance 1.5%), a catheter was placed in a tail vein, and animals were positioned in the SPECT camera (MILabs, Utrecht, The Netherlands). Prior to image acquisition, a bolus injection of ^99mTc-sestamibi and ^111In-coNGR or ^111In-co(NGR)4 was given intravenously (i.v.) in a maximum volume of 200 µL. Table S1 in Supplementary Material available online at https://doi.org/10.1155/2017/8638549 provides an overview of the average injected dose. Immediately after injection, 4 consecutive time frames of 15 min each were acquired. For image quantification we used the last of these frames.
Acquired list mode data was reconstructed using MILabs reconstruction software (version 2.51) employing the POS-EM algorithm (6 iterations and 16 subsets, reconstructed at a voxel size of 0.4 mm). ^99mTc and ^111In images were reconstructed by selecting photo peak and background energy levels as described before.
To allow quantification of imaging agent uptake, in vivo isotope-specific conversion factors (CF) were determined for the 0.6 mm collimator in a representative phantom with a known activity. Using the previously described method the following conversion factors (CF), CF99mTc 612 MBq/mL and CF111In 643 MBq/mL, were found.
PMOD 3.7 cardiac tool PCARD (PMOD technologies, Zürich, Switzerland) was used to segment the heart in the 17-segment model. Uptake per segment was subsequently expressed as a mean standardized uptake value (SUVmean), also using the previously described method. For body weight, we assumed that 1 g equalled 1 mL.

On the set-up of data set [1]: species or system Swiss mice. The settings on record: mouse, in vivo. The procedure: as §1, with “University. After imaging, the vital organs were harvested and kept for gamma-counting (Wallac Wizard, Turku, Finland). Acquired data were expressed as percentage injected dose per gram tissue (% ID/g).” for “University.”
A short description of the next data set: in vitro. The data set is classed as in vitro ADME. The conditions noted are these: human, whole blood. Here is the method: ^111[…], or ^111In-co(NGR)4 was added to […] human blood in heparin (BD Biosciences, […], The Netherlands). Blood stability was tested at 0, 10, 30, and 50 min. For each time point imaging agents were separated from blood cells and proteins by adding 0.5 mL MeCN (VWR International BV, Breda, The Netherlands) to 0.5 mL blood sample followed by centrifugation (2,000 ×g, 3 min). Supernatant samples were analyzed by HPLC using the above-mentioned method.

Data set [2] in a line: Octanol/water partition coefficient (logP). Format: physicochemical. The conditions noted are these: 111In-labeled tracer, separate experiment 2 of 3, N = 3, method as ref 22. The procedure: The logP value of each compound was determined in three separate experiments as described previously.
Where [3] appears, read: 111In tracer i.v., last of 4 15-min SPECT frames, SUVmean, 17-segment model, n = 5 coNGR, n = 8 co(NGR)4.
[4] abbreviates: 111In-labeled tracer i.v., last of 4 consecutive 15 min SPECT frames.

With `N=C(N)NCCC[C@@H]1NC(=O)CNC(=O)[C@H](CC(N)=O)NC(=O)[C@H](CSC2CC(=O)N(CC3CCC(C(=O)NCCCC[C@H](NC(=O)C4CCC(CN5C(=O)CC(SC[C@@H]6NC(=O)CNC(=O)[C@H](CCCNC(=N)N)NC(=O)CNC(=O)[C@H](CC(N)=O)NC6=O)C5=O)CC4)C(=O)NCCCC[C@H](NC(=O)[C@H](CCCCNC(=O)C4CCC(CN5C(=O)CC(SC[C@@H]6NC(=O)CNC(=O)[C@H](CCCNC(=N)N)NC(=O)CNC(=O)[C@H](CC(N)=O)NC6=O)C5=O)CC4)NC(=O)C4CCC(CN5C(=O)CC(SC[C@@H]6NC(=O)CNC(=O)[C@H](CCCNC(=N)N)NC(=O)CNC(=O)[C@H](CC(N)=O)NC6=O)C5=O)CC4)C(=O)N[C@@H](CCCCNC(=O)[C@@H](N)CSC4CC(=O)N(CC5CCC(C(=O)NCCCCC(C(=O)O)N(CCN(CC(=O)O)CC(=O)O)CCN(CC(=O)O)CC(=O)O)CC5)C4=O)C(N)=O)CC3)C2=O)NC(=O)CNC1=O` (some centres unmarked) [co(NGR)4], on CD13 (setting [3]), the “SUV of NGR imaging agent, segment 1. Basal anterior” value is on record as 0.37 ± 0.06; the “SUV of NGR imaging agent, segment 2. Basal anteroseptal” value is on record as 0.37 ± 0.05; the “SUV of NGR imaging agent, segment 3. Basal inferoseptal” value is 0.40 ± 0.05; the “SUV of NGR imaging agent, segment 4. Basal inferior” value was 0.41 ± 0.06. Also, on CD13 (setting [3]), the “SUV of NGR imaging agent, segment 5. Basal inferolateral” value was determined as 0.46 ± 0.07; the “SUV of NGR imaging agent, segment 6. Basal anterolateral” value was 0.40 ± 0.07; the “SUV of NGR imaging agent, segment 7. Mid anterior” value came out at 0.32 ± 0.04; the “SUV of NGR imaging agent, segment 8. Mid anteroseptal” value is reported as 0.36 ± 0.03. For the same compound, at CD13 (setting [3]), the “SUV of NGR imaging agent, segment 9. Mid inferoseptal” value was found to be 0.59 ± 0.06; the “SUV of NGR imaging agent, segment 10. Mid inferior” value amounted to 0.56 ± 0.08; the “SUV of NGR imaging agent, segment 11. Mid inferolateral” value was determined as 0.44 ± 0.07; the “SUV of NGR imaging agent, segment 12. Mid anterolateral” value was 0.40 ± 0.05. Also, on CD13 (setting [3]), the “SUV of NGR imaging agent, segment 13. Apical anterior” value came out at 0.54 ± 0.07; the “SUV of NGR imaging agent, segment 14. Apical septal” value stood at 0.80 ± 0.09; the “SUV of NGR imaging agent, segment 15. Apical inferior” value amounted to 0.82 ± 0.08; the “SUV of NGR imaging agent, segment 16. Apical lateral” value worked out at 0.54 ± 0.06. Also, the “SUV of NGR imaging agent, segment 17. Apex” value at CD13 (setting [3]) was 0.76 ± 0.10. Moreover, on CD13 (setting [4]), the “SUV in segments affected by MI” value was 0.57 ± 0.03 and the “SUV in segments not affected by MI” value was found to be 0.43 ± 0.02. In addition, the kidney uptake entry in data set [1] is recorded as “Substantial kidney uptake”. The urinary excretion in data set [1] (iv) was 54.9 ± 9.1 % ID/g. Moreover, the share remaining at 50 min in the data set “in vitro” was determined as 25.3%. Moreover, in data set [2], the logP2 was −3.64 ± 0.03.
